Laboratory results as given in patent US12281149B2, “Modulators of G-protein coupled receptors” (priority 2021, dated 2025).
pEC50: −log10 of the molar value. Where two headings read alike, the source gives them in different places. *1 amine or outer side, *2 acyl side, *3 side chain or, on linkers, in order; H or OH if unused. Where a SMILES comes first, the peptide text is derived from it. Side-chain parts run from the residue outwards. [ ]: non-standard residue; d: D form. The star is where a group is joined. Isobutyryl(2-(3-CN-5-F-Ph)) = CC(C)(C(=O)*)c1cc(F)cc(C#N)c1; C20 diacid = O=C(O)CCCCCCCCCCCCCCCCCCC(=O)*; Phenylacetyl(3-Cl) = O=C(Cc1cccc(Cl)c1)*; γGlu = O=C(O)[C@H](CCC(=O)[*:2])N[*:1]; β2hAla(R) = C[C@H](CN[*:1])C(=O)[*:2]; Phe(2-F) = N[C@@H](Cc1ccccc1F)C(=O)O; αMeF = C[C@](N)(Cc1ccccc1)C(=O)O; X60 = O=C(C1(c2cccnc2)CCCC1)*; AEEA = NCCOCCOCC(=O)O; Aib = CC(C)(N)C(=O)O; βAla = NCCC(=O)O

How the values were obtained:
Format in all cases: cell-based
[1] = molecular target: T1, GLP-1 receptor (Homo sapiens, UniProt P43220); assay: HitHunter cAMP assay, GLP-1 receptor; conditions: for Emax: read-out: Emax GLP-1R
[2] = molecular target: T1, GLP-1 receptor; assay: PathHunter β-arrestin assay, GLP-1 receptor; parameters: host or cells: PathHunter CHO-K1 GLP1R β-Arrestin Cell Line
[3] = molecular target: T2, GIP receptor (Homo sapiens, UniProt P48546); assay: HitHunter cAMP assay, GIP receptor; conditions: for Emax: read-out: Emax GIP-1R
T2 sequence (P48546 22-466): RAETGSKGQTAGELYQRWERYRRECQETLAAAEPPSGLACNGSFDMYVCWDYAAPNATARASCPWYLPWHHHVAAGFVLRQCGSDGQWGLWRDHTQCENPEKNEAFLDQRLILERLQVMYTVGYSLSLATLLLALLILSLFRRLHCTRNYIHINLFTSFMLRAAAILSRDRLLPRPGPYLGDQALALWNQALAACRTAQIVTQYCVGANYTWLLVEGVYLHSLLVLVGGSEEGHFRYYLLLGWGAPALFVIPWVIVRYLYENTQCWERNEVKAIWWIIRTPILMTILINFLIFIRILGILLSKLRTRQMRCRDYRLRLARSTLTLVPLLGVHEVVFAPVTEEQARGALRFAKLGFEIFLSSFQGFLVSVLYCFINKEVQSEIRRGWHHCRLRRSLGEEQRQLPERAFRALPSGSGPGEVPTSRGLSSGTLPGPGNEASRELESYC
Protocol: CAMP accumulation was measured in Chinese hamster ovary (CHO) cells stably expressing the human GLP-1 receptor or GIP receptor using the HitHunter CAMP Assay for Small Molecules Kit (Eurofins). Briefly, cells were grown in Ham's F12 Nutrient Mix with 10% FBS and lifted with Cell dissociation buffer, Enzyme free, PBS based (ThermoFisher). Cells were pelleted and resuspended in Hank's buffered saline solution with 10 mM Hepes and 625 μM 3-isobutyl-1-methylxanthine. The antibody reagent was then added to cells at a 1:2 ratio and 5 μL of mixture was seeded in 384-well small volume white assay plates, at 10,000 cells/well. Cells were then treated with 50 nl compound in DMSO using an ECHO 550 acoustic dispenser (Labcyte) in a 20-point dose response format in triplicate for 30 min. Cells were the lysed and detection reagents added according to the manufacturer's protocol. After overnight incubation, luminescence was measured using a Perkin Elmer Envision plate reader. Raw data was normalized to the maximum signal from GLP-1 or GIP (high) and DMSO (low). Dose response curves were analyzed using GraphPad Prism 9.0.

[4] = molecular target: T2, GIP receptor; assay: PathHunter β-arrestin assay, GIP receptor; parameters: host or cells: PathHunter CHO-K1 GIPR β-Arrestin Cell Line
[5] = CHO cells stably expressing human GLP-1 receptor, cAMP accumulation, 30 min, read-out: EC50 GLP-1R
[6] = CHO cells, cAMP, normalized to maximum signal from GLP-1 (high) and DMSO (low)
[7] = β-arrestin-2 recruitment, PathHunter CHO-K1 GLP1R β-Arrestin Cell Line, 90 min at 37° C., normalized to GLP-1, read-out: GLP-1R β Arrestin EC50
[8] = CHO cells stably expressing GIP receptor, cAMP accumulation, 30 min, read-out: EC50 GIP-1R
[9] = CHO cells, cAMP, normalized to maximum signal from GIP (high) and DMSO (low)
[10] = β-arrestin-2 recruitment, PathHunter CHO-K1 GIPR β-Arrestin Cell Line, 90 min at 37° C., normalized to GIP, read-out: GIPR β Arrestin EC50

T1 sequence (P43220 24-463): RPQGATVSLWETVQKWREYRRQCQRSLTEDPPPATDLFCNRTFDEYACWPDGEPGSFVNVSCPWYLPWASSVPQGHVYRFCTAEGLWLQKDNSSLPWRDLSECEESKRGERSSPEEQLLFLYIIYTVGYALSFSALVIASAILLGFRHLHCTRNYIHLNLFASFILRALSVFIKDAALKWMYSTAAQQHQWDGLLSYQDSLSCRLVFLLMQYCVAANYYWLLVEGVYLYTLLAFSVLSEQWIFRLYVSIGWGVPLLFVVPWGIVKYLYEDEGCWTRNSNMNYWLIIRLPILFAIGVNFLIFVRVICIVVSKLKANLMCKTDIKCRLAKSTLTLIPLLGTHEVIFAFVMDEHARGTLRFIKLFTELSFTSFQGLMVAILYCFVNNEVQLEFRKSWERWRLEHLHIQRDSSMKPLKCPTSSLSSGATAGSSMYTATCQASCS

CC[C@H](C)[C@H](NC(=O)[C@H](CC(C)C)NC(=O)[C@H](Cc1c[nH]c2ccccc12)NC(=O)[C@H](CCC(N)=O)NC(=O)[C@@H](NC(=O)[C@H](Cc1ccccc1)NC(=O)[C@H](C)NC(=O)[C@H](CCCCNC(=O)COCCOCCNC(=O)COCCOCCNC(=O)CC[C@H](NC(=O)CCCCCCCCCCCCCCCCCCC(=O)O)C(=O)O)NC(=O)[C@H](CCC(N)=O)NC(=O)[C@H](C)NC(=O)[C@@H](NC(=O)[C@H](CCCCN)NC(=O)[C@H](CC(=O)O)NC(=O)[C@H](CC(C)C)NC(=O)C(C)(C)NC(=O)[C@@H](NC(=O)[C@H](CO)NC(=O)[C@H](Cc1ccc(O)cc1)NC(=O)[C@H](CC(=O)O)NC(=O)[C@H](CO)NC(=O)[C@@H](NC(=O)[C@H](Cc1ccccc1)NC(=O)[C@@H](NC(=O)CNC(=O)[C@H](CCC(=O)O)NC(=O)[C@H](C)CNC(=O)C(C)(C)c1cc(F)cc(C#N)c1)[C@@H](C)O)[C@@H](C)O)[C@@H](C)CC)[C@@H](C)CC)C(C)C)C(=O)N[C@@H](C)C(=O)NCC(=O)NCC(=O)N1CCC[C@H]1C(=O)N[C@@H](CO)C(=O)N[C@@H](CO)C(=O)NCC(=O)N[C@@H](C)C(=O)N1CCC[C@H]1C(=O)N1CCC[C@H]1C(=O)N1CCC[C@H]1C(=O)N[C@@H](CO)C(N)=O [Compound 225] ({Isobutyryl(2-(3-CN-5-F-Ph))}-[β2hAla(R)]EGTFTSDYSI[Aib]LDKIAQK([AEEA-AEEA-γGlu-C20 diacid])AFVQWLIAGGPSSGAPPPS-NH2)
pEC50 [1, 5]: 9.00 to 10.00
Emax [1, 6]: 102%
pEC50 [2, 7]: < 6.00
pEC50 [3, 8]: 7.00 to 8.00
Emax [3, 9]: 98%
pEC50 [4, 10]: < 6.00

CC[C@H](C)[C@H](NC(=O)[C@H](CC(C)C)NC(=O)[C@H](Cc1c[nH]c2ccccc12)NC(=O)[C@H](CCC(N)=O)NC(=O)[C@@H](NC(=O)[C@H](Cc1ccccc1)NC(=O)[C@H](C)NC(=O)[C@H](CCCCNC(=O)COCCOCCNC(=O)COCCOCCNC(=O)CC[C@H](NC(=O)CCCCCCCCCCCCCCCCCCC(=O)O)C(=O)O)NC(=O)[C@H](CCC(N)=O)NC(=O)[C@H](C)NC(=O)[C@@H](NC(=O)[C@H](CCCCN)NC(=O)[C@H](CC(=O)O)NC(=O)[C@H](CC(C)C)NC(=O)C(C)(C)NC(=O)[C@@H](NC(=O)[C@H](CO)NC(=O)[C@H](Cc1ccc(O)cc1)NC(=O)[C@H](CC(=O)O)NC(=O)[C@H](CO)NC(=O)[C@@H](NC(=O)[C@H](Cc1ccccc1)NC(=O)[C@@H](NC(=O)CNC(=O)[C@H](CCC(=O)O)NC(=O)CCNC(=O)CNC(=O)Cc1cccc(Cl)c1)[C@@H](C)O)[C@@H](C)O)[C@@H](C)CC)[C@@H](C)CC)C(C)C)C(=O)N[C@@H](C)C(=O)NCC(=O)NCC(=O)N1CCC[C@H]1C(=O)N[C@@H](CO)C(=O)N[C@@H](CO)C(=O)NCC(=O)N[C@@H](C)C(=O)N1CCC[C@H]1C(=O)N1CCC[C@H]1C(=O)N1CCC[C@H]1C(=O)N[C@@H](CO)C(N)=O [Compound 230] ({Phenylacetyl(3-Cl)}-G[βAla]EGTFTSDYSI[Aib]LDKIAQK([AEEA-AEEA-γGlu-C20 diacid])AFVQWLIAGGPSSGAPPPS-NH2)
pEC50 [1]: 8.00 to 9.00
Emax ([1]; CHO): 99%
pEC50 [2]: < 6.00
pEC50 [3]: 7.00 to 8.00
Emax ([3]; CHO): 96%
pEC50 [4]: < 6.00

CC[C@H](C)[C@H](NC(=O)[C@H](CC(C)C)NC(=O)[C@H](Cc1c[nH]c2ccccc12)NC(=O)[C@H](CCC(N)=O)NC(=O)[C@@H](NC(=O)[C@H](Cc1ccccc1)NC(=O)[C@H](C)NC(=O)[C@H](CCCCNC(=O)COCCOCCNC(=O)COCCOCCNC(=O)CC[C@H](NC(=O)CCCCCCCCCCCCCCCCCCC(=O)O)C(=O)O)NC(=O)[C@H](CCC(N)=O)NC(=O)[C@H](C)NC(=O)[C@@H](NC(=O)[C@H](CCCCN)NC(=O)[C@H](CC(=O)O)NC(=O)[C@H](CC(C)C)NC(=O)C(C)(C)NC(=O)[C@@H](NC(=O)[C@H](CO)NC(=O)[C@H](Cc1ccc(O)cc1)NC(=O)[C@H](CC(=O)O)NC(=O)[C@H](CO)NC(=O)[C@@H](NC(=O)[C@H](Cc1ccccc1F)NC(=O)[C@@H](NC(=O)CNC(=O)[C@H](CCC(=O)O)NC(=O)CCNC(=O)C1(c2cccnc2)CCCC1)[C@@H](C)O)[C@@H](C)O)[C@@H](C)CC)[C@@H](C)CC)C(C)C)C(=O)N[C@@H](C)C(=O)NCC(=O)NCC(=O)N1CCC[C@H]1C(=O)N[C@@H](CO)C(=O)N[C@@H](CO)C(=O)NCC(=O)N[C@@H](C)C(=O)N1CCC[C@H]1C(=O)N1CCC[C@H]1C(=O)N1CCC[C@H]1C(=O)N[C@@H](CO)C(N)=O [Compound 231] ({X60-βAla}-EGT[Phe(2-F)]TSDYSI[Aib]LDKIAQK([AEEA-AEEA-γGlu-C20 diacid])AFVQWLIAGGPSSGAPPPS-NH2)
pEC50 [1, 5]: 9.00 to 10.00
Emax [1, 6]: 111%
pEC50 [2, 7]: < 6.00
pEC50 [3, 8]: 9.00 to 10.00
Emax [3, 9]: 110%
pEC50 [4, 10]: < 6.00

CC[C@H](C)[C@H](NC(=O)[C@H](CC(C)C)NC(=O)[C@H](Cc1c[nH]c2ccccc12)NC(=O)[C@H](CCC(N)=O)NC(=O)[C@@H](NC(=O)[C@H](Cc1ccccc1)NC(=O)[C@H](C)NC(=O)[C@H](CCCCNC(=O)COCCOCCNC(=O)COCCOCCNC(=O)CC[C@H](NC(=O)CCCCCCCCCCCCCCCCCCC(=O)O)C(=O)O)NC(=O)[C@H](CCC(N)=O)NC(=O)[C@H](C)NC(=O)[C@@H](NC(=O)[C@H](CCCCN)NC(=O)[C@H](CC(=O)O)NC(=O)[C@H](CC(C)C)NC(=O)C(C)(C)NC(=O)[C@@H](NC(=O)[C@H](CO)NC(=O)[C@H](Cc1ccc(O)cc1)NC(=O)[C@H](CC(=O)O)NC(=O)[C@H](CO)NC(=O)[C@@H](NC(=O)[C@H](Cc1ccccc1F)NC(=O)[C@@H](NC(=O)CNC(=O)[C@H](CCC(=O)O)NC(=O)CCNC(=O)C(C)(C)c1cc(F)cc(C#N)c1)[C@@H](C)O)[C@@H](C)O)[C@@H](C)CC)[C@@H](C)CC)C(C)C)C(=O)N[C@@H](C)C(=O)NCC(=O)NCC(=O)N1CCC[C@H]1C(=O)N[C@@H](CO)C(=O)N[C@@H](CO)C(=O)NCC(=O)N[C@@H](C)C(=O)N1CCC[C@H]1C(=O)N1CCC[C@H]1C(=O)N1CCC[C@H]1C(=O)N[C@@H](CO)C(N)=O [Compound 233] ({Isobutyryl(2-(3-CN-5-F-Ph))-βAla}-EGT[Phe(2-F)]TSDYSI[Aib]LDKIAQK([AEEA-AEEA-γGlu-C20 diacid])AFVQWLIAGGPSSGAPPPS-NH2)
pEC50 [1, 5]: 9.00 to 10.00
Emax [1, 6]: 121%
pEC50 [2, 7]: < 6.00
pEC50 [3, 8]: 9.00 to 10.00
Emax [3, 9]: 109%
pEC50 [4, 10]: > 6.00

CC[C@H](C)[C@H](NC(=O)[C@H](CC(C)C)NC(=O)[C@H](Cc1c[nH]c2ccccc12)NC(=O)[C@H](CCC(N)=O)NC(=O)[C@@H](NC(=O)[C@H](Cc1ccccc1)NC(=O)[C@H](C)NC(=O)[C@H](CCCCNC(=O)COCCOCCNC(=O)COCCOCCNC(=O)CC[C@H](NC(=O)CCCCCCCCCCCCCCCCCCC(=O)O)C(=O)O)NC(=O)[C@H](CCC(N)=O)NC(=O)[C@H](C)NC(=O)[C@@H](NC(=O)[C@H](CCCCN)NC(=O)[C@H](CC(=O)O)NC(=O)[C@H](CC(C)C)NC(=O)C(C)(C)NC(=O)[C@@H](NC(=O)[C@H](CO)NC(=O)[C@H](Cc1ccc(O)cc1)NC(=O)[C@H](CC(=O)O)NC(=O)[C@H](CO)NC(=O)[C@@H](NC(=O)[C@](C)(Cc1ccccc1)NC(=O)[C@@H](NC(=O)CNC(=O)[C@H](CCC(=O)O)NC(=O)CCNC(=O)C1(c2cccnc2)CCCC1)[C@@H](C)O)[C@@H](C)O)[C@@H](C)CC)[C@@H](C)CC)C(C)C)C(=O)N[C@@H](C)C(=O)NCC(=O)NCC(=O)N1CCC[C@H]1C(=O)N[C@@H](CO)C(=O)N[C@@H](CO)C(=O)NCC(=O)N[C@@H](C)C(=O)N1CCC[C@H]1C(=O)N1CCC[C@H]1C(=O)N1CCC[C@H]1C(=O)N[C@@H](CO)C(N)=O [Compound 234] ({X60-βAla}-EGT[αMeF]TSDYSI[Aib]LDKIAQK([AEEA-AEEA-γGlu-C20 diacid])AFVQWLIAGGPSSGAPPPS-NH2)
pEC50 [1, 5]: 9.00 to 10.00
Emax [1, 6]: 105%
pEC50 [2, 7]: < 6.00
pEC50 [3, 8]: 9.00 to 10.00
Emax [3, 9]: 112%
pEC50 [4, 10]: > 6.00
